Key:
[1] = tested on: 109 different protein kinases; experiment: Screen of 109 kinases (Dundee); assay type: biochemical; conditions: 25 μM solution; many kinases
HeLa-HLR cells = experiment: Cell proliferation (SRB assay), HeLa-HLR; assay type: cell-based; conditions: 50 μM, 72 h
Protocol: HeLa cells containing a tetracycline/doxycycline-inducible constitutively active PKCε were described previously.[26] A PathDetect HeLa HLR cell line was obtained from Agilent, Technologies, Wokingham, U.K. PC-3 prostate adenocarcinoma cells were obtained from Dr. Helmut Klocker, Department of Urology, Innsbruck Medical University. For cell proliferation HeLa HLR and PC-3 cells were seeded at ∼10 000 cells per well in 96-well plates. After 4 h various concentrations of 8 were added and left for 72 h. Cell proliferation was determined by the SRB assay.[35]

ERK1 = ERK1 (Homo sapiens, UniProt P27361); experiment: Kinase profiling (Dundee), ERK1; assay type: biochemical; conditions: 25 μM solution
PIM3 = PIM3 (Homo sapiens, UniProt Q86V86); experiment: Kinase profiling (Dundee), PIM3; assay type: biochemical; conditions: 25 μM solution
PKCβII/RACK1 interaction = target: T1, PKCβII/RACK1 interaction (Homo sapiens, UniProt P63244); experiment: PKCβII/RACK1 in vitro binding assay; conditions: Figure 2B
T1 construct: 6-His
Protocol: This assay was similar to the PKCε/RACK2 binding assay described above. 6-his-tagged RACK1 was cloned into a pET-30a(+) vector (Novagen, Merck KGaA, Darmstadt, Germany) and purified with Ni-NTA agarose (Qiagen, Hilden, Germany). Final elution was performed with 500 nM imidazole in elution buffer (20 mM Tris-HCl/300 mM NaCl, 20% glycerol, pH 7.5). The integrity of purified recombinant protein was analyzed by Coomassie Blue staining and Western blotting. Then 200 ng RACK1 was coated onto 96-well EIA/RIA high binding plates (Costar, Corning, New York, NY) at 4 °C on a shaker with gentle agitation overnight. Compound 8 was added at room temperature for 30 min. Then 500 ng of recombinant GST-tagged PKCβII (ProQinase) was activated with CaCl2, phosphatidylserine, and TPA for 10 min. The RACK1-coated plates with and without 8 were incubated for 1 h with activated PKCβII. The interaction was determined with a primary rabbit anti-GST antibody (Santa Cruz) and corresponding HRP-conjugated goat anti-rabbit HRP conjugated secondary antibody (Santa Cruz) as described above for the PKCε/RACK2 interaction.

[2] = tested on: HeLa cells with doxycycline-inducible PKCε; experiment: Invasion of HeLa cells through a reconstituted basement membrane matrix; assay type: cell-based; conditions: PKCε induced with doxycycline, Figure 6C
Protocol: Figure 6 Compound 8 inhibits MARCKS phosphorylation, cell proliferation, and invasion following treatment with 8. (A) HeLa cells were starved for 16 h in medium without fetal calf serum. Subsequently, they were treated with 50 μM solution of compound 8 for 30 min and 100 nM TPA for the last 10 min. An amount of 150 μg of protein from lysed cells was loaded onto SDS 8–16% gels. Tubulin was used as loading control. Below a representative blot, a bar graph corresponding to quantitative scans of three independent experiments (±SD) is shown. (B) Cell proliferation following treatment of HeLa and PC-3 cells with 8. The mean values (±SD) of three independent experiments, in which three samples were taken within each experiment, are shown. (C) Invasion of cells through a membrane. Cell invasion was determined as described in Experimental Section. In HeLa cells with a doxycycline-inducible PKCε the expression of PKCε was induced with doxycycline (control + Dox). The mean of three experiments (±SD) is shown: (∗) p = 0.03. The data are normalized to the control (100%). Therefore, the standard deviation for the control is 0.
For cell migration and motility, a scratch migration assay described by Cha et al.[41] was employed. […] Invasion of HeLa cells through a reconstituted basement membrane matrix was determined with a cell invasion assay kit from Chemicon (no. ECM550) as described by the manufacturer.

[3] = tested on: VEGF-induced angiogenesis in chicken egg; experiment: Chicken egg angiogenesis assay; assay type: in vivo; conditions: Figure 8
Protocol: Eggs from hen were incubated at 37 °C for 3 days, opened, and incubated for further 7 days. After further incubation for 5 days, angiogenesis was observed by microscope.

PKCε = PKCε translocation by immunofluorescence in PC-3 cells; assay type: cell-based, human; conditions: Figure 4
Protocol: PC-3 cells were grown on glass coverslips coated with poly-L-lysine (Sigma-Aldrich). After treatment with 8 for 30 min and with 100 nM TPA for 5 min, the cells were rinsed twice with phosphate buffered saline (PBS) and fixed with filter sterilized 4% (w/v) paraformaldehyde/4% sucrose (w/v) (both from Sigma-Aldrich) in PBS at room temperature for 10 min. Subsequently the cells were washed three times with PBS and permeabilized with 0.2% Triton X-100/0.2% IgG-free BSA in PBS at room temperature for 10 min. After blocking with 5% normal goat serum diluted in PBS as described above for 30 min, cells were incubated with the primary antibodies for PKCε (Santa Cruz; diluted 1:500) in 0.2% Triton X-100/0.2% IgG-free BSA in PBS at 4 °C overnight. Subsequently, the cells were washed three times with the same buffer and incubated with the labeled secondary antibody (Alexa Fluor, Invitrogen, Life Technologies, Carlsbad, CA; 1:4000) at room temperature for 1 h. After three more washes with 0.2% Triton X-100/0.2% IgG-free BSA in PBS, cells were mounted with Mowiol (Sigma-Aldrich) and images were taken with an Olympus BX 50 optical microscope (Olympus Corporation, Tokyo, Japan).

Chain of ERK1 (P27361 whole entry, species assumed): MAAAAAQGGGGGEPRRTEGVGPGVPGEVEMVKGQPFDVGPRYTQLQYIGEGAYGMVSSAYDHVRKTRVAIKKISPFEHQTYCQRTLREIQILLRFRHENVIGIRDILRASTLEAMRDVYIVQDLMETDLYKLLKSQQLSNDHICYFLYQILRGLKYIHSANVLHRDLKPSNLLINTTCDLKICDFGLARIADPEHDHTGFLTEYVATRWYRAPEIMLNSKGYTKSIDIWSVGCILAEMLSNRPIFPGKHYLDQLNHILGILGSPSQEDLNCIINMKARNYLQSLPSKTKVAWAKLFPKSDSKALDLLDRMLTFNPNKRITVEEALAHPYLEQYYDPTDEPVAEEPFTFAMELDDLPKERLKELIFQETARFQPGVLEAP

ERK1 activity, % of control (ERK1): 55 % of control | PIM3 activity, % of control (PIM3): 46 % of control | Prevention of the PKCβII/RACK1 interaction (PKCβII/RACK1 interaction): does not prevent
SMILES: CC(=O)c1cccc(NC(=O)c2sc3nc4cc5c(cc4cc3c2N)OCCO5)c1 [Compound 8, N-(3-acetylphenyl)-9-amino-2,3-dihydro-1,4-dioxino[2,3-g]thieno[2,3-b]quinoline-8-carboxamide]
Effect on kinases in a screen of 109 kinases [1]: not or only slightly affected | Inhibition of cell proliferation (HeLa-HLR cells): did not show any inhibition | Invasion of cells through an extracellular matrix [2]: inhibited | Induction of angiogenesis by vascular endothelial growth factor [3]: inhibited | TPA-induced PKCε translocation to the plasma membrane (immunocytochemistry) (PKCε): prevented
